Test results: paper PMC8222254, “Self-assembly of an anion receptor with metal-dependent kinase inhibition and potent in vitro anti-cancer properties” (Nature Communications, 2021)
Values joined by “and” are separate entries in the source; they are usually repeats but may differ in a detail not shown here. Identical values can stand only once.

Tests used:
Experiment in all cases: Kinase inhibition screen, cell-free 33P ATP assay at 10 μM
Assay type in all cases: biochemical
[1] = molecular target: T1, 140 purified human kinases (Homo sapiens, UniProt O43318)
T1 sequence (O43318 1-606): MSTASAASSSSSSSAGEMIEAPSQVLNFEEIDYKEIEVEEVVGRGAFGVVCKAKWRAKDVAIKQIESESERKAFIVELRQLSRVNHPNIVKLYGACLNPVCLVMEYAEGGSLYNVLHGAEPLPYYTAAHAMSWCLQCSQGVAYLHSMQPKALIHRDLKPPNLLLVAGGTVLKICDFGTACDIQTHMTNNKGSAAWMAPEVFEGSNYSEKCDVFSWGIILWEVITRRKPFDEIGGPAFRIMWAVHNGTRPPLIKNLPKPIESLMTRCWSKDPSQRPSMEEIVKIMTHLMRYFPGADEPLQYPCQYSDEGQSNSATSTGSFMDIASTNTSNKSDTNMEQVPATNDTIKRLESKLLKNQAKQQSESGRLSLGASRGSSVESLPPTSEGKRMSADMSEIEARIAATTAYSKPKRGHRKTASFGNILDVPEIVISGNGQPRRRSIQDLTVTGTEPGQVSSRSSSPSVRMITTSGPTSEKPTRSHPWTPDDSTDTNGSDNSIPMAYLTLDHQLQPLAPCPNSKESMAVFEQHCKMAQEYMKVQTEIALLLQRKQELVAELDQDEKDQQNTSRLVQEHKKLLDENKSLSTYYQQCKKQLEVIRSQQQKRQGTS
Method in brief: (§1)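 Radiometric ^33P ATP cell-free format with purified enzymes; both complexes run at 10 μM in duplicate, results plotted on a kinome map via HGNC symbols.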

[2] = molecular target: 140 purified human kinases (Homo sapiens, UniProt P53355)
Sequence of 140 purified human kinases (Homo sapiens, UniProt P53355) (P53355 whole entry): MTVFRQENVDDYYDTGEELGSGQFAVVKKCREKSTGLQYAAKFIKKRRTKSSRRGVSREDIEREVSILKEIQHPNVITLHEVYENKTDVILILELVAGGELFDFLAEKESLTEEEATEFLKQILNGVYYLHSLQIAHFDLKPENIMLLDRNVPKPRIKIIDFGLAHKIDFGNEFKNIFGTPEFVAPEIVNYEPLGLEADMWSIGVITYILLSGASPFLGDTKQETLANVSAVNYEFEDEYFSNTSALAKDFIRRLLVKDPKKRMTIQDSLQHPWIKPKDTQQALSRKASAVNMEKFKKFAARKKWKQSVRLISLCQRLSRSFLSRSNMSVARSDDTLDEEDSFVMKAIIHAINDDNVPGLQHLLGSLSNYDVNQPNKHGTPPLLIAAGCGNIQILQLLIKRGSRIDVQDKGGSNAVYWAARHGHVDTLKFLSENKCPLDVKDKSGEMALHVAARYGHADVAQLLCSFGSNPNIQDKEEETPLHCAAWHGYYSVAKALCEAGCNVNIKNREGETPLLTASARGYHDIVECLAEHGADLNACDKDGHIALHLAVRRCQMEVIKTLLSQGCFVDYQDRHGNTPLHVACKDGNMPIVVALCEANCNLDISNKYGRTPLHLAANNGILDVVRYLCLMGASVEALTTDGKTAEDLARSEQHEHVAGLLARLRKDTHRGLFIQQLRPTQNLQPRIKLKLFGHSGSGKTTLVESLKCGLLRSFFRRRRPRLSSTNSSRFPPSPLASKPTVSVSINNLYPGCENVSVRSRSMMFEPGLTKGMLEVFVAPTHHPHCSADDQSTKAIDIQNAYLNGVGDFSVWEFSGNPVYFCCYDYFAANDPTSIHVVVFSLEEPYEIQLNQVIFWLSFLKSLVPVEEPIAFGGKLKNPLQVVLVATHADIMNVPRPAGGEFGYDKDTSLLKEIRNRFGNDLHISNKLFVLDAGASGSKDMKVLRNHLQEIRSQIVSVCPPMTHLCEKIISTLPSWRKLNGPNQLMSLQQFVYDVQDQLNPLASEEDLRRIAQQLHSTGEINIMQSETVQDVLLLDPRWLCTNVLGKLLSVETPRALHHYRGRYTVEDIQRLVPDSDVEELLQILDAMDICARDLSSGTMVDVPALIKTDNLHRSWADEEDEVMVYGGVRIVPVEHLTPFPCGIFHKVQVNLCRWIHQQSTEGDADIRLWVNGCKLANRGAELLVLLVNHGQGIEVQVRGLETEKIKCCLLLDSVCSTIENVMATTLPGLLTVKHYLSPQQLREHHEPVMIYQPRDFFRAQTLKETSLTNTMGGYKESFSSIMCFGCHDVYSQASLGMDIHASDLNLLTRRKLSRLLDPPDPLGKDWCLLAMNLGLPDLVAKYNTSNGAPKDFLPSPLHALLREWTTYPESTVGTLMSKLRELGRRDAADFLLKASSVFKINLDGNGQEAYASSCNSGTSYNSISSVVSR
Method in brief: as §1

[3] = molecular target: 140 purified human kinases (Homo sapiens, UniProt P16234); conditions: PDGFRA
Sequence of 140 purified human kinases (Homo sapiens, UniProt P16234) (P16234 24-1089): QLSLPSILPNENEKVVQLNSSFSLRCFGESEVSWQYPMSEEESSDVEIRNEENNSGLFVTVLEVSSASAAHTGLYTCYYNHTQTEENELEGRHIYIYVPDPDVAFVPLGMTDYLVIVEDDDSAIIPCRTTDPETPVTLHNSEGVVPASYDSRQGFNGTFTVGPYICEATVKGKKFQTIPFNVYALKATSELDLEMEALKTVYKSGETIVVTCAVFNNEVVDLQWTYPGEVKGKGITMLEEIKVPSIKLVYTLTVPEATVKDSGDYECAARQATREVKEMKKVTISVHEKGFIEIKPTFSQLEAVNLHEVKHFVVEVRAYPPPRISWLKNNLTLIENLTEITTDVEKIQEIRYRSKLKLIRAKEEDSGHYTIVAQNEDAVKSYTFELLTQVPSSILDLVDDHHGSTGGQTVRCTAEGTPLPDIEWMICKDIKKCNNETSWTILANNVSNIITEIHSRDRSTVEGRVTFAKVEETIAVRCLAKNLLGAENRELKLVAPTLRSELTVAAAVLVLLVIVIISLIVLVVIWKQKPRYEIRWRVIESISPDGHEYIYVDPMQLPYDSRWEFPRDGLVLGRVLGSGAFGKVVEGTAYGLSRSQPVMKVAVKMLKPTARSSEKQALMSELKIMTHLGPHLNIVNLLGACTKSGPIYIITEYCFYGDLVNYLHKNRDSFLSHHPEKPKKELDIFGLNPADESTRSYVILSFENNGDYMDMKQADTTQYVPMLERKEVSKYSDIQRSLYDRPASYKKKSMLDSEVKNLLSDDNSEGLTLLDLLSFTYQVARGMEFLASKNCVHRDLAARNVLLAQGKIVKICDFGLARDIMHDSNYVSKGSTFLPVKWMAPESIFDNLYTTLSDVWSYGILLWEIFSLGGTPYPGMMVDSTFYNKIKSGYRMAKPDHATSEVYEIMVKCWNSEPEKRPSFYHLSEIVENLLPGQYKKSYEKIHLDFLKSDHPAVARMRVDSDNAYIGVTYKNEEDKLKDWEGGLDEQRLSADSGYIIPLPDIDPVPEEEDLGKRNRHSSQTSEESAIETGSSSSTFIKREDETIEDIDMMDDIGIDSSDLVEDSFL
Method in brief: as §1

[4] = molecular target: 140 purified human kinases (Homo sapiens, UniProt Q86V86)
Method in brief: as §1

[5] = molecular target: 140 purified human kinases (Homo sapiens, UniProt Q16584)
Method in brief: as §1

[6] = molecular target: 140 purified human kinases (Homo sapiens, UniProt Q96SB4)
Method in brief: as §1

[7] = molecular target: 140 purified human kinases (Homo sapiens, UniProt P11309)
Method in brief: as §1

[8] = molecular target: 140 purified human kinases (Homo sapiens, UniProt P45984)
Method in brief: as §1

[9] = molecular target: 140 purified human kinases (Homo sapiens, UniProt Q9P289)
Method in brief: as §1

[10] = molecular target: 140 purified human kinases (Homo sapiens, UniProt P23443)
Sequence of 140 purified human kinases (Homo sapiens, UniProt P23443) (P23443 whole entry): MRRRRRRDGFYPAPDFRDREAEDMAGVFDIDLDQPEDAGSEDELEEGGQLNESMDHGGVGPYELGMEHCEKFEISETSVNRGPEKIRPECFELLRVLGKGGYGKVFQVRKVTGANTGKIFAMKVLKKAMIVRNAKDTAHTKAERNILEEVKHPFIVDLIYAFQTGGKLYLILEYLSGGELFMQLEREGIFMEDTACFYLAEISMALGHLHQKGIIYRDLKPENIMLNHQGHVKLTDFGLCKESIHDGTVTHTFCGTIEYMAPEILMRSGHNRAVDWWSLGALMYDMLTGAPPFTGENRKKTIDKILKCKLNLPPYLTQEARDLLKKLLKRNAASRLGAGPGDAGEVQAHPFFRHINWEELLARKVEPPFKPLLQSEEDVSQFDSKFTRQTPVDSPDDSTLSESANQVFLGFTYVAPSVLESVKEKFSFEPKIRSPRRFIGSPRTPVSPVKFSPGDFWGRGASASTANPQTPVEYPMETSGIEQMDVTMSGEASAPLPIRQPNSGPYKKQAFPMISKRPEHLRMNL
Method in brief: as §1

[11] = molecular target: 140 purified human kinases (Homo sapiens, UniProt Q9H4A3)
Method in brief: as §1

[12] = molecular target: 140 purified human kinases (Homo sapiens, UniProt P36507)
Method in brief: as §1

[13] = molecular target: 140 purified human kinases (Homo sapiens, UniProt Q13233)
Sequence of 140 purified human kinases (Homo sapiens, UniProt Q13233) (Q13233 whole entry): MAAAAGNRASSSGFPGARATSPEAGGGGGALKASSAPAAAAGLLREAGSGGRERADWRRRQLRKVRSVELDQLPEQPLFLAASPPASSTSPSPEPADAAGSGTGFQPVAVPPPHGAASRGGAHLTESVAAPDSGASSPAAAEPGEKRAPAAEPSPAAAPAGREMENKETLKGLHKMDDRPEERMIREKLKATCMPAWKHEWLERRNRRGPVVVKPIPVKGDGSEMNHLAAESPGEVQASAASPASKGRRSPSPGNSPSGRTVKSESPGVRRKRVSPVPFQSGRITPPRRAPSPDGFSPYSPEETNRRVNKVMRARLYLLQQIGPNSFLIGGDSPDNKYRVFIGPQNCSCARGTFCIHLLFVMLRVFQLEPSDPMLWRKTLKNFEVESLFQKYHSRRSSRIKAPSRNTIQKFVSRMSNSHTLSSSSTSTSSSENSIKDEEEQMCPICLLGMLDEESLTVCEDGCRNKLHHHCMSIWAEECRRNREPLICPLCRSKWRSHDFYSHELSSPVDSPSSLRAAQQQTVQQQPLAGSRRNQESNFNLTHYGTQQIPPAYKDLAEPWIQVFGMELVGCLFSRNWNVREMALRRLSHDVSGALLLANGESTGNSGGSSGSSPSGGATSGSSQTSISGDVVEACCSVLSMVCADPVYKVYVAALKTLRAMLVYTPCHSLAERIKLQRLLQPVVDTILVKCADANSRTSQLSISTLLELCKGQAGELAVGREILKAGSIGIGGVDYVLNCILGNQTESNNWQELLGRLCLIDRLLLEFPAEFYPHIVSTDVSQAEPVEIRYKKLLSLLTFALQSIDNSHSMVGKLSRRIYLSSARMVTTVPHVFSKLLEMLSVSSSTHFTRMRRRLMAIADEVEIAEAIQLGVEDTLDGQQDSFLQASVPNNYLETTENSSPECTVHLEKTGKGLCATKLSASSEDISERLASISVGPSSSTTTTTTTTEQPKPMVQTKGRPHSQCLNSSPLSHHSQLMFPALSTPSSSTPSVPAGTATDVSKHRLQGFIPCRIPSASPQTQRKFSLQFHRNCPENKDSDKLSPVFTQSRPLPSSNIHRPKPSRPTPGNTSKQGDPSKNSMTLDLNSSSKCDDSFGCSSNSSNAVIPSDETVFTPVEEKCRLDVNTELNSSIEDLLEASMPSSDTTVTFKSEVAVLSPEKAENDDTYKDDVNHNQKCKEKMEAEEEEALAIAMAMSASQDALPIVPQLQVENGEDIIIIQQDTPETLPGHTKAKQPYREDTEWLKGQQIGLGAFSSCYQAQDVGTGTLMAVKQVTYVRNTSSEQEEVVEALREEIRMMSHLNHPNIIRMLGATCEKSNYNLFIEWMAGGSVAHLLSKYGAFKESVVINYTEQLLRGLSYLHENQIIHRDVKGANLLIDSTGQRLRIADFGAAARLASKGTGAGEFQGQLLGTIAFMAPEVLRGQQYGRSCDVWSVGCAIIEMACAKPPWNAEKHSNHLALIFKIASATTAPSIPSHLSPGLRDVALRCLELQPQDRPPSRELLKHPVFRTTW
Method in brief: as §1

[14] = molecular target: 140 purified human kinases (Homo sapiens, UniProt O75582)
Method in brief: as §1

[15] = molecular target: 140 purified human kinases (Homo sapiens, UniProt Q7KZI7)
Method in brief: as §1

CC(=O)[O-].CC(=O)[O-].CC(=O)[O-].CC(=O)[O-].CC(=O)[O-].CC(=O)[O-].[Zn+2].[Zn+2].[Zn+2].c1ccc(-c2csc(NCCN(CCNc3nc(-c4ccccn4)cs3)CCNc3nc(-c4ccccn4)cs3)n2)nc1.c1ccc(-c2csc(NCCN(CCNc3nc(-c4ccccn4)cs3)CCNc3nc(-c4ccccn4)cs3)n2)nc1 [[L2Zn3]6+]
% Inhibition, Mean ([1]; TAK1): 35%
% Inhibition, Run 1 / Run 2 ([1]; TAK1): 34% and 36%
mean % activity ([1]; TAK1): 65%
% activity ([1]; TAK1, duplicate runs): 66% and 64%
% Activation, Mean value ([2]; DAPK1): 16%
% Inhibition, Mean ([2]; DAPK1): -16%
% Inhibition, Run 1 / Run 2 ([2]; DAPK1): -12% and -21%
mean % activity ([2]; DAPK1): 116%
% Activity Run 1 ([2]; DAPK1, 10 µM): 112.0%
% Activity Run 2 ([2]; DAPK1, 10 µM): 121.0%
% activity ([2]; DAPK1, duplicate runs): 112% and 121%
% Inhibition, Mean [3]: 24%
% Inhibition, Run 1 / Run 2 [3]: 27% and 22%
mean % activity [3]: 76%
% activity ([3]; duplicate runs): 74% and 78%
% Inhibition, Mean ([4]; PIM3): 36%
% Inhibition, Run 1 / Run 2 ([4]; PIM3): 38% and 35%
mean % activity ([4]; PIM3): 64%
% activity ([4]; PIM3, duplicate runs): 62% and 65%
% Inhibition, Mean ([5]; MLK3): 5%
% Inhibition, Run 1 / Run 2 ([5]; MLK3): 4% and 6%
mean % activity ([5]; MLK3): 95%
% activity ([5]; MLK3, duplicate runs): 96% and 94%
% Inhibition, Mean ([6]; SRPK1): 35%
mean % activity ([6]; SRPK1): 66%
% activity ([6]; SRPK1, duplicate runs): 53% and 78%
% Inhibition, Mean ([7]; PIM1): 26%
% Inhibition, Run 1 / Run 2 ([7]; PIM1): 28% and 23%
mean % activity ([7]; PIM1): 74%
% activity ([7]; PIM1, duplicate runs): 72% and 77%
% Inhibition, Mean ([8]; JNK2): 31%
% Inhibition, Run 1 / Run 2 ([8]; JNK2): 33% and 28%
mean % activity ([8]; JNK2): 70%
% activity ([8]; JNK2, duplicate runs): 67% and 72%
% Inhibition, Mean ([9]; MST4): 23%
% Inhibition, Run 1 / Run 2 ([9]; MST4): 26% and 19%
mean % activity ([9]; MST4): 77%
% activity ([9]; MST4, duplicate runs): 74% and 81%
% Inhibition, Mean ([10]; S6K1): 42%
mean % activity ([10]; S6K1): 58%
% activity ([10]; S6K1, duplicate runs): 43% and 74%
% Inhibition, Mean ([11]; WNK1): 2.3%
mean % activity ([11]; WNK1): 98%
% activity ([11]; WNK1, duplicate runs): 90% and 106%
% Inhibition, Mean ([12]; MKK2): 42%
% Inhibition, Run 1 / Run 2 ([12]; MKK2): 40% and 45%
mean % activity ([12]; MKK2): 58%
% activity ([12]; MKK2, duplicate runs): 60% and 55%
% Inhibition, Mean ([13]; MEKK1): 17%
mean % activity ([13]; MEKK1): 83%
% activity ([13]; MEKK1, duplicate runs): 75% and 92%
% Inhibition, Mean ([14]; MSK1): 22%
% Inhibition, Run 1 / Run 2 ([14]; MSK1): 27% and 18%
mean % activity ([14]; MSK1): 78%
% activity ([14]; MSK1, duplicate runs): 73% and 82%
% Inhibition, Mean ([15]; MARK2): 34%
% Inhibition, Run 1 / Run 2 ([15]; MARK2): 45% and 24%
mean % activity ([15]; MARK2): 66%
% activity ([15]; MARK2, duplicate runs): 56% and 76%

[Cu+2].[Cu+2].[Cu+2].c1ccc(-c2csc(NCCN(CCNc3nc(-c4ccccn4)cs3)CCNc3nc(-c4ccccn4)cs3)n2)nc1.c1ccc(-c2csc(NCCN(CCNc3nc(-c4ccccn4)cs3)CCNc3nc(-c4ccccn4)cs3)n2)nc1 [[L2Cu3]6+]
% Inhibition Run 1 ([1]; TAK1): 45.7%
% Inhibition Run 2 ([1]; TAK1): 51.7%
% Inhibition, Mean ([1]; TAK1): 49%
mean % activity ([1]; TAK1): 51%
% activity ([1]; TAK1, Run 1): 54.3%
% activity ([1]; TAK1, Run 2): 48.3%
% Activation, Mean value ([2]; DAPK1): 1.5%
% Inhibition Run 1 ([2]; DAPK1): 6.2%
% Inhibition Run 2 ([2]; DAPK1): -9.2%
% Inhibition, Mean ([2]; DAPK1): -1.5%
mean % activity ([2]; DAPK1): 102%
% activity ([2]; DAPK1, Run 1): 93.8%
% activity ([2]; DAPK1, Run 2): 109.2%
% Activation, Mean value [3]: 4.7%
% Inhibition Run 1 [3]: 10.8%
% Inhibition Run 2 [3]: -20.2%
% Inhibition, Mean [3]: -4.7%
mean % activity [3]: 105%
% activity ([3]; Run 1): 89.2%
% activity ([3]; Run 2): 120.2%
% Inhibition Run 1 ([4]; PIM3): 54.7%
% Inhibition Run 2 ([4]; PIM3): 54.9%
% Inhibition, Mean ([4]; PIM3): 55%
mean % activity ([4]; PIM3): 45%
% activity ([4]; PIM3, Run 1): 45.3%
% activity ([4]; PIM3, Run 2): 45.1%
% Inhibition Run 1 ([5]; MLK3): 94.9%
% Inhibition Run 2 ([5]; MLK3): 94.9%
% Inhibition, Mean ([5]; MLK3): 95%
mean % activity ([5]; MLK3): 5%
% activity ([5]; MLK3, Run 1): 5.1%
% activity ([5]; MLK3, Run 2): 5.1%
% Activity inhibition Mean ([5]; MLK3, 10 µM): 94.9%
% Activity inhibition Run 1 ([5]; MLK3, 10 µM): 94.9%
% Activity inhibition Run 2 ([5]; MLK3, 10 µM): 94.9%
% Activity remaining Run 1 ([5]; MLK3, 10 µM): 5.10%
% Activity remaining Run 2 ([5]; MLK3, 10 µM): 5.10%
% Inhibition Run 1 ([6]; SRPK1): 58.1%
% Inhibition Run 2 ([6]; SRPK1): 50.4%
% Inhibition, Mean ([6]; SRPK1): 54%
mean % activity ([6]; SRPK1): 46%
% activity ([6]; SRPK1, Run 1): 41.9%
% activity ([6]; SRPK1, Run 2): 49.6%
% Inhibition Run 1 ([7]; PIM1): 53.7%
% Inhibition Run 2 ([7]; PIM1): 42%
% Inhibition, Mean ([7]; PIM1): 48%
mean % activity ([7]; PIM1): 52%
% activity ([7]; PIM1, Run 1): 46.3%
% activity ([7]; PIM1, Run 2): 58%
% Inhibition Run 1 ([8]; JNK2): 22.9%
% Inhibition Run 2 ([8]; JNK2): 15.4%
% Inhibition, Mean ([8]; JNK2): 19%
mean % activity ([8]; JNK2): 81%
% activity ([8]; JNK2, Run 1): 77.1%
% activity ([8]; JNK2, Run 2): 84.6%
% Inhibition Run 1 ([9]; MST4): 74.5%
% Inhibition Run 2 ([9]; MST4): 70.2%
% Inhibition, Mean ([9]; MST4): 72%
mean % activity ([9]; MST4): 28%
% activity ([9]; MST4, Run 1): 25.5%
% activity ([9]; MST4, Run 2): 29.8%
% Inhibition Run 1 ([10]; S6K1): 79%
% Inhibition Run 2 ([10]; S6K1): 89.6%
% Inhibition, Mean ([10]; S6K1): 84%
mean % activity ([10]; S6K1): 16%
% activity ([10]; S6K1, Run 1): 21%
% activity ([10]; S6K1, Run 2): 10.4%
% Inhibition Run 1 ([11]; WNK1): 12.1%
% Inhibition Run 2 ([11]; WNK1): -2.6%
% Inhibition, Mean ([11]; WNK1): 4.75%
mean % activity ([11]; WNK1): 95%
% activity ([11]; WNK1, Run 1): 87.9%
% activity ([11]; WNK1, Run 2): 102.6%
% Inhibition Run 1 ([12]; MKK2): 70.5%
% Inhibition Run 2 ([12]; MKK2): 79%
% Inhibition, Mean ([12]; MKK2): 75%
mean % activity ([12]; MKK2): 25%
% activity ([12]; MKK2, Run 1): 29.5%
% activity ([12]; MKK2, Run 2): 21%
% Inhibition Run 1 ([13]; MEKK1): 48.4%
% Inhibition Run 2 ([13]; MEKK1): 57.6%
% Inhibition, Mean ([13]; MEKK1): 53%
mean % activity ([13]; MEKK1): 47%
% activity ([13]; MEKK1, Run 1): 51.6%
% activity ([13]; MEKK1, Run 2): 42.4%
% Inhibition Run 1 ([14]; MSK1): 67.5%
% Inhibition Run 2 ([14]; MSK1): 74.8%
% Inhibition, Mean ([14]; MSK1): 71%
mean % activity ([14]; MSK1): 29%
% activity ([14]; MSK1, Run 1): 32.5%
% activity ([14]; MSK1, Run 2): 25.2%
% Inhibition Run 1 ([15]; MARK2): 29.8%
% Inhibition Run 2 ([15]; MARK2): 21.6%
% Inhibition, Mean ([15]; MARK2): 26%
mean % activity ([15]; MARK2): 74%
% activity ([15]; MARK2, Run 1): 70.2%
% activity ([15]; MARK2, Run 2): 78.4%
